The target of experiment [1] is T1, androgen receptor (rat ventral prostate cytosol) (Rattus norvegicus, UniProt P15207).
T1 construct: from tissue; host or cells: ventral prostate cytosol of castrated male Sprague Dawley or Wistar rats
T1 sequence (P15207 1-902): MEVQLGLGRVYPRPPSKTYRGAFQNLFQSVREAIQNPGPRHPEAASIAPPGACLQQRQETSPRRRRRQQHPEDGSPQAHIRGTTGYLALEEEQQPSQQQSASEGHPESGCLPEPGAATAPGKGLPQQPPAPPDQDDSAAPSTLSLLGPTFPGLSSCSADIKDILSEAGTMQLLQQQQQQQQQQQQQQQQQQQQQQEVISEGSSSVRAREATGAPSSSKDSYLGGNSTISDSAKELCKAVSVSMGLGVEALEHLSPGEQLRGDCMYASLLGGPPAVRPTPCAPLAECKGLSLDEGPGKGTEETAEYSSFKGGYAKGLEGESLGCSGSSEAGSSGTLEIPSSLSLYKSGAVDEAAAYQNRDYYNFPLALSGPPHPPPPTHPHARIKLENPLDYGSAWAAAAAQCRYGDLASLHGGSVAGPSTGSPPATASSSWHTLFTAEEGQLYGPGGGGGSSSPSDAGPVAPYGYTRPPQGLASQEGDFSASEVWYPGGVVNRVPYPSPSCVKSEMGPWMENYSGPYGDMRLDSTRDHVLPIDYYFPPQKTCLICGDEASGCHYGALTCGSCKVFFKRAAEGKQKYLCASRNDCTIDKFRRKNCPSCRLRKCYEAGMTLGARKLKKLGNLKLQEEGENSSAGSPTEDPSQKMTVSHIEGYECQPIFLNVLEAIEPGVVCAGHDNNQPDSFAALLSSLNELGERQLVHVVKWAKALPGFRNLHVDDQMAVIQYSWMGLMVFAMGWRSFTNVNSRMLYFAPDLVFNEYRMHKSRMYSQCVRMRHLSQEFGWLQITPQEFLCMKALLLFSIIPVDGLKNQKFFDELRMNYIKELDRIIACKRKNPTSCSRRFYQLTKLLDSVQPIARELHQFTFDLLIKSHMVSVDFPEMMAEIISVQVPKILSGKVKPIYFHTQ
Nature of the experiment: Androgen Receptor Binding Using Rat Ventral Prostate Cytosol. Conditions: for inhibition at 1 µM: read-out: % Inhibition, Androgen Receptor Binding (Rat Cytosol). In a few lines:
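Cytosol from castrated rat ventral prostate was incubated overnight at 4°C with 0.5 nM [3H] tracer and compound in TED buffer (10 mM Tris-HCl pH 7.4, molybdate, EDTA, DTT, glycerol).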

Experiment [2] concerns the target T2, androgen receptor LBD (Panvera) (Rattus norvegicus, UniProt P15207).
T2 construct: 5 pmol androgen receptor LBD (Panvera); purchased Panvera
T2 sequence (P15207 651-882 limits assumed): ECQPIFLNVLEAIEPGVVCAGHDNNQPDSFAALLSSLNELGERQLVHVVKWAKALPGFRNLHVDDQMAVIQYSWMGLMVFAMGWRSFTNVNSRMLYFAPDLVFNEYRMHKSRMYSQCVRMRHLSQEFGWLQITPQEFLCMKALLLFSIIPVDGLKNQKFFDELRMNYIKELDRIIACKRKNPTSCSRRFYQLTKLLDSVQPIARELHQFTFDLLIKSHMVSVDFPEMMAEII
The experiment in a line: Androgen Receptor Filtration Binding Assay (PANVERA). The method, then: The assay was run on a 96 well plate with each well filled with a total reaction volume 150 μL, of a solution containing 5 pmol androgen receptor LBD (Panvera) or 30 μL of freshly prepared rat cytosol, 0.5 nM [^3H] […] (TED buffer contains 10 mM Tris.HCl pH 7.4, 1 mM sodium molybdate, 1.5 mM EDTA, 1 mM DTT and 10% (v/v) glycerol.)
On day one, the solution containing receptor, tracer and TED buffer was distributed into a 96 well plate. Diluted test compound or control vehicle was then added to individual wells and the plate incubated at 4° C. overnight.
On day two, to each well was then added 20 μL human γ-globulin (ICN 823102), prepared at 25 mg/ml in TE pH 8.0, and 55 μL 40% polyethylene glycol 8000 (J T Baker U222-08), prepared in TE pH 8.0. The plate was incubated at 4° C. for 60 minutes. During incubation, the harvester was rinsed with 10% PEG 8000, prepared in TE pH 8.0, and a GF/C Unifilter-96 was pre-wet with 10% PEG. The binding reaction was filtered, the retentate was washed three times with 10% PEG and dried under vacuum for a couple of minutes, then dried at 50° C. for 5 min and the plate was bottom sealed. Next, 25 μL of Microscint-20 (Packard) was added to the filter wells and the plate was top sealed. The plate wells were then counted on a TopCount (Packard).
Counts per well were measured and IC50s determined by linear regression.

Where [3] appears, read: read-out: IC50 (nM), Androgen Receptor Binding (Rat Cytosol).
Setting [4] is: [3H] R1881 tracer 0.5 nM, read-out: IC50 (nM), Androgen Receptor Binding (Panvera).
[5] abbreviates: read-out: IC50 (nM), Androgen Receptor Binding (Panvera).

Values joined by “and” are separate entries in the source; they are usually repeats but may differ in a detail not shown here. Identical values can stand only once. Like-named read-outs stand apart in the source and are kept apart here.

For orientation: inhibition means the drop in the measured response relative to a control, in per cent. A word on the IC50: it is the point on the concentration scale where inhibition reaches its midpoint. For `CC(O)(COC(=O)c1ccccc1C(F)(F)F)c1cc2cc(NC(=O)C(F)(F)F)c(C(F)(F)F)cc2[nH]1` (stereo not shown) [Compound 60], the inhibition at 1 µM in experiment [1] (Concentration 1000 nM) was found to be 44.5%. Also, the IC50 in experiment [1] (setting [3]) is greater than 10000 nM; in experiment [2] (setting [4]) it was 6750 nM.

As to `CC(O)(COC(=O)c1ccccc1C(F)(F)F)c1cc2cc(N)c(C(F)(F)F)cc2[nH]1` (stereo not shown) [Compound 59], in experiment [1], the IC50 is 220 nM and the inhibition at 1 µM stood at 67.5%. For the same molecule, the IC50 in experiment [2] (setting [5]) is 4100 nM.

Consider `COC(=O)c1ccc2c(c1)cc(C(C)(O)CSc1ccc(F)cc1)n2S(C)(=O)=O` (stereo not shown) [Compound 98], for which the inhibition at 1 µM in experiment [1] (Concentration 1000 nM) is -31%. Also, the IC50 in experiment [2] (setting [4]) turned out to be 8500 nM.

As to `CC(O)(CSc1ccc(Cl)cc1)c1cc2cc(C#N)c(C(F)(F)F)cc2[nH]1` (stereo not shown) [Compound 96], the “% Inhibition, Androgen Receptor Binding (Rat Cytosol)” value (“% Inhibition” below) in experiment [1] (1 µM) was found to be 59%. Further, in experiment [1], the inhibition at 1 µM turned out to be 74%. In addition, the IC50 is 820 nM in experiment [2] (IC50 (nM), Androgen Receptor Binding (Panvera)) and 1710 nM in experiment [2] (setting [5]).

As for `CC(O)(CSc1ccc(F)cc1)c1cc2ccccc2[nH]1` (stereo not shown) [Compound 108], in experiment [1] (Concentration 1000 nM), the inhibition at 1 µM was determined as 17.5%. The IC50 in experiment [2] (setting [4]) came to 7000 nM.

Turning to `CC(O)(CSc1ccc(Cl)c(Cl)c1)c1cc2cc([N+](=O)[O-])c(C(F)(F)F)cc2[nH]1` (stereo not shown) [Compound 87], in experiment [1] (Concentration 1000 nM, 1 µM), the “% Inhibition” value is 85% and 61.5%. Further, the IC50 is 120 nM in experiment [1] (setting [3]); 350 nM and 1650 nM in experiment [2] (setting [4]).

`CS(=O)(=O)n1c(C2(O)CCNCC2)cc2cc(Cl)c(C(F)(F)F)cc21` [Compound 23]: the “% Inhibition” value in experiment [1] (Concentration 1000 nM) is reported as −1.5%. Besides, the IC50 in experiment [1] (setting [3]) came to 6000 nM; in experiment [2] (setting [4]) it was 54000 nM.

In the case of `CC(CO)(Sc1ccc(Cl)cc1)c1cc2cc(Cl)c(C(F)(F)F)cc2[nH]1` (racemic) [Compound 253], in experiment [1] (Concentration 1000 nM), the inhibition at 1 µM came to 33.5%. Moreover, the IC50 in experiment [2] (setting [4]) turned out to be 335 nM.

`CC(O)(Sc1ccccc1)c1cc2cc([N+](=O)[O-])c(C(F)(F)F)cc2[nH]1` (racemic) [Compound 258]: the “% Inhibition” value in experiment [1] (Concentration 1000 nM) stood at 35.4%. For the same molecule, the IC50 in experiment [2] (setting [4]) was found to be 2450 nM.

In the case of `CC(O)(CSc1ccccc1)c1cc2cc(Cl)c(C(F)(F)F)cc2[nH]1` (stereo not shown) [Compound 106], the inhibition at 1 µM in experiment [1] (Concentration 1000 nM) is 63%. Further, the values for the IC50 in experiment [1] (setting [3]) and in experiment [2] (setting [4]) were 300 nM and 225 nM, respectively.

For the molecule `COC(=O)c1ccc2[nH]c(C(C)(O)CSc3ccc(Cl)cc3)cc2c1` (stereo not shown) [Compound 97], the inhibition at 1 µM in experiment [1] (Concentration 1000 nM) amounted to 25%. Also, in experiment [2] (setting [4]), the IC50 came out at 7400 nM.

For the molecule `CC(O)(CSc1ccccc1)c1cc2nc(C(F)(F)F)ccc2[nH]1` (racemic) [Compound 2], the inhibition at 1 µM in experiment [1] (Concentration 1000 nM) came to 2.5%. Also, in experiment [2] (setting [4]), the IC50 was found to be 53000 nM.

Turning to `CC(O)(c1cc2cc(C#N)c(C(F)(F)F)cc2[nH]1)S(=O)(=O)c1ccc(Cl)cc1` (racemic) [Compound 262], the “% Inhibition” value in experiment [1] (Concentration 1000 nM) is recorded as −8.4%. Further, in experiment [2] (setting [4]), the IC50 was greater than 10000 nM.

On to `CC(O)(Sc1ccc(Cl)cc1)c1cc2cc(C#N)c(C(F)(F)F)cc2[nH]1` (racemic) [Compound 261], for which, in experiment [1] (Concentration 1000 nM), the “% Inhibition” value was 14.05%. Moreover, in experiment [2] (setting [4]), the IC50 amounted to 1460 nM.

For `CC(O)(Sc1ccc(Cl)c(Cl)c1)c1cc2cc([N+](=O)[O-])c(C(F)(F)F)cc2[nH]1` (racemic) [Compound 254], in experiment [1] (Concentration 1000 nM), the “% Inhibition” value was determined as 41%. Besides, the IC50 was 670 nM in experiment [1] (setting [3]); 1020 nM and 920 nM in experiment [2] (setting [4]).

Turning to `COc1ccc(C(=O)OCC(C)(O)c2cc3cc([N+](=O)[O-])c(C(F)(F)F)cc3[nH]2)cc1` (stereo not shown) [Compound 65], the inhibition at 1 µM in experiment [1] (Concentration 1000 nM) is 47.5%. Also, the IC50 in experiment [2] (setting [4]) amounted to 945 nM.

Consider `CC(O)(CSc1ccc(Cl)cc1)c1cc2cc(Cl)c(C(F)(F)F)cc2[nH]1` (stereo not shown) [Compound 82], for which the “% Inhibition” value in experiment [1] (Concentration 1000 nM, 1 µM) turned out to be 83%. In addition, the inhibition at 1 µM in experiment [1] (Concentration 1000 nM) amounted to 69.8%. Further, the IC50 in experiment [1] (setting [3]) was 640 nM; in experiment [2] (setting [4]) it was 185 nM and 200 nM.

`CC(O)(COC(=O)c1ccc([N+](=O)[O-])cc1)c1cc2cc([N+](=O)[O-])c(C(F)(F)F)cc2[nH]1` (stereo not shown) [Compound 63]: the inhibition at 1 µM in experiment [1] (Concentration 1000 nM) was 47.5%. Also, the IC50 in experiment [2] (setting [4]) came to 1550 nM.
